The text below walks through data of PubChem BioAssay AID1259407 (Chemical Carcinogenesis Research Information System (CCRIS), 2018).

The subject of this series is CCRIS mutagenicity, Ames/micronucleus/aberration tests. The series is described as follows: CCRIS mutagenicity studies.
Setting [1] is: Test System: AMES SALMONELLA TYPHIMURIUM, Strain/Indicator: TA98, Metabolic Activation: NONE, Method: STANDARD PLATE.
[2] abbreviates: Test System: AMES SALMONELLA TYPHIMURIUM, Strain/Indicator: TA100, Metabolic Activation: NONE, Method: STANDARD PLATE.

Entries after “also recorded” stand apart in the source; their conditions may differ. Calls of active or inactive are those of the source. How the calls were made is not given here.

On to `Nc1ccc(Oc2ccc(N)cc2)cc1`, for which the mutagenic call by setting is: (End Point: IN VITRO CHROMOSOMAL ABERRATIONS, Test System: CHL CELLS, Metabolic Activation: NONE) “active; positive (structural changes); precipitation occurred at 1.3 and 5.0 mg/ml; also recorded: active; positive (structural changes); precipitation occurred at 1.7 and 5.0 mg/ml”; (End Point: IN VITRO CHROMOSOMAL ABERRATIONS, Test System: CHL CELLS, Metabolic Activation: RAT, LIVER, S-9, SODIUM PHENOBARBITAL AND 5,6-BENZOFLAVONE) “active; positive (structural changes); precipitation occurred at 1.7 mg/ml”; (End Point: IN VITRO CHROMOSOMAL ABERRATIONS, Test System: CHO CELLS, Metabolic Activation: RAT, LIVER, S-9, AROCLOR 1254) “active; positive; precipitation occurred at 1600 and 5000 ug/ml; also recorded: active; positive; precipitation occurred at 2000, 3000, 4000 and 5000 ug/ml”; (Test System: AMES SALMONELLA TYPHIMURIUM, Strain/Indicator: TA97, Metabolic Activation: HAMSTER, LIVER, S-9, AROCLOR 1254 (10%), Method: PREINCUBATION) “active; positive”; (Test System: AMES SALMONELLA TYPHIMURIUM, Strain/Indicator: TA97, Metabolic Activation: NONE, Method: PREINCUBATION) “inactive; negative”; (Test System: AMES SALMONELLA TYPHIMURIUM, Strain/Indicator: TA97, Metabolic Activation: RAT, LIVER, S-9, AROCLOR 1254 (10%), Method: PREINCUBATION) “active; positive”. Also, the mutagenic call by setting is: (Test System: AMES SALMONELLA TYPHIMURIUM, Strain/Indicator: TA98, Metabolic Activation: HAMSTER, LIVER, S-9, AROCLOR 1254 (10%), Method: PREINCUBATION) “active; positive”; (Test System: AMES SALMONELLA TYPHIMURIUM, Strain/Indicator: TA98, Metabolic Activation: NONE, Method: FLUCTUATION (MICROTITER)) “inactive; negative”; under setting [1], “inactive; negative”; (Test System: AMES SALMONELLA TYPHIMURIUM, Strain/Indicator: TA98, Metabolic Activation: RAT LIVER S-9, PHENOBARBITAL AND BETA-NAPHTHOFLAVONE, Method: PREINCUBATION) “active; positive”; (Test System: AMES SALMONELLA TYPHIMURIUM, Strain/Indicator: TA98, Metabolic Activation: RAT, LIVER, S-9, AROCLOR 1254 (10%), Method: PREINCUBATION) “active; positive”; (Test System: AMES SALMONELLA TYPHIMURIUM, Strain/Indicator: TA98, Metabolic Activation: RAT, LIVER, S-9, PCB, Method: PREINCUBATION) “active; positive”. Further, the mutagenic call reads like this: (Test System: AMES SALMONELLA TYPHIMURIUM, Strain/Indicator: TA98, Metabolic Activation: RAT, LIVER, S-9, PCB, Method: STANDARD PLATE) “active; positive”; (Test System: AMES SALMONELLA TYPHIMURIUM, Strain/Indicator: TA100, Metabolic Activation: HAMSTER, LIVER, S-9, AROCLOR 1254 (10%), Method: PREINCUBATION) “active; positive”; under setting [2], “inactive; negative”; (Test System: AMES SALMONELLA TYPHIMURIUM, Strain/Indicator: TA100, Metabolic Activation: RAT LIVER S-9, PHENOBARBITAL AND BETA-NAPHTHOFLAVONE, Method: PREINCUBATION) “active; positive”; (Test System: AMES SALMONELLA TYPHIMURIUM, Strain/Indicator: TA100, Metabolic Activation: RAT, LIVER, S-9, AROCLOR 1254 (10%), Method: PREINCUBATION) “active; positive”; (Test System: AMES SALMONELLA TYPHIMURIUM, Strain/Indicator: TA100, Metabolic Activation: RAT, LIVER, S-9, PCB, Method: PREINCUBATION) “active; positive”. Besides, the mutagenic call by setting is: (Test System: AMES SALMONELLA TYPHIMURIUM, Strain/Indicator: TA100, Metabolic Activation: RAT, LIVER, S-9, PCB, Method: STANDARD PLATE) “active; positive”; (Test System: AMES SALMONELLA TYPHIMURIUM, Strain/Indicator: TA1535, Metabolic Activation: HAMSTER, LIVER, S-9, AROCLOR 1254 (10%), Method: PREINCUBATION) “active; positive”; (Test System: AMES SALMONELLA TYPHIMURIUM, Strain/Indicator: TA1535, Metabolic Activation: NONE, Method: PREINCUBATION) “inactive; negative”; (Test System: AMES SALMONELLA TYPHIMURIUM, Strain/Indicator: TA1535, Metabolic Activation: RAT LIVER S-9, PHENOBARBITAL AND BETA-NAPHTHOFLAVONE, Method: PREINCUBATION) “inactive; negative”; (Test System: AMES SALMONELLA TYPHIMURIUM, Strain/Indicator: TA1535, Metabolic Activation: RAT, LIVER, S-9, AROCLOR 1254 (10%), Method: PREINCUBATION) “inactive; negative”; (Test System: AMES SALMONELLA TYPHIMURIUM, Strain/Indicator: TA1537, Metabolic Activation: HAMSTER, LIVER, S-9, AROCLOR 1254 (10%), Method: PREINCUBATION) “active; positive”. For the same compound, the mutagenic call reads like this: (Test System: AMES SALMONELLA TYPHIMURIUM, Strain/Indicator: TA1537, Metabolic Activation: NONE, Method: FLUCTUATION (MICROTITER)) “inactive; negative”; (Test System: AMES SALMONELLA TYPHIMURIUM, Strain/Indicator: TA1537, Metabolic Activation: NONE, Method: PREINCUBATION) “inactive; negative”; (Test System: AMES SALMONELLA TYPHIMURIUM, Strain/Indicator: TA1537, Metabolic Activation: RAT LIVER S-9, PHENOBARBITAL AND BETA-NAPHTHOFLAVONE, Method: PREINCUBATION) “inactive; negative”; (Test System: AMES SALMONELLA TYPHIMURIUM, Strain/Indicator: TA1537, Metabolic Activation: RAT, LIVER, S-9, AROCLOR 1254 (10%), Method: PREINCUBATION) “inactive; negative”; (Test System: AMES SALMONELLA TYPHIMURIUM, Strain/Indicator: TA7001, Metabolic Activation: NONE, Method: FLUCTUATION (MICROTITER)) “inactive; negative”; (Test System: AMES SALMONELLA TYPHIMURIUM, Strain/Indicator: TA7002, Metabolic Activation: NONE, Method: FLUCTUATION (MICROTITER)) “inactive; negative”. Also, the mutagenic call was “inactive; negative” (Test System: AMES SALMONELLA TYPHIMURIUM, Strain/Indicator: TA7003, Metabolic Activation: NONE, Method: FLUCTUATION (MICROTITER)); “inactive; negative” (Test System: AMES SALMONELLA TYPHIMURIUM, Strain/Indicator: TA7004, Metabolic Activation: NONE, Method: FLUCTUATION (MICROTITER)); “active; positive” (Test System: AMES SALMONELLA TYPHIMURIUM, Strain/Indicator: TA7005, Metabolic Activation: NONE, Method: FLUCTUATION (MICROTITER)); “inactive; negative” (Test System: AMES SALMONELLA TYPHIMURIUM, Strain/Indicator: TA7006, Metabolic Activation: NONE, Method: FLUCTUATION (MICROTITER)); “inactive; negative” (Test System: E.COLI, Strain/Indicator: WP2UVRA, Metabolic Activation: NONE, Method: PREINCUBATION); “inactive; negative” (Test System: E.COLI, Strain/Indicator: WP2UVRA, Metabolic Activation: RAT LIVER S-9, PHENOBARBITAL AND BETA-NAPHTHOFLAVONE, Method: PREINCUBATION).

`Cc1cc(Cc2cc(C)cc(C(C)(C)C)c2O)c(O)c(C(C)(C)C)c1`: the mutagenic call reads like this: under setting [1], “inactive; negative”; (Test System: AMES SALMONELLA TYPHIMURIUM, Strain/Indicator: TA98, Metabolic Activation: S-9, Method: STANDARD PLATE) “inactive; negative”; under setting [2], “inactive; negative”; (Test System: AMES SALMONELLA TYPHIMURIUM, Strain/Indicator: TA100, Metabolic Activation: S-9, Method: STANDARD PLATE) “inactive; negative”.
